“And” between values parts separate entries of the source, which are not always exact repeats. Equal values may be shown once. One block for each molecule: values may come before it.
Columns and labels:
Assay type in all cases: cell-based
K562 [1] = assay: Synergy of Hec1 inhibitor with cytotoxic drug (combination index, MTS)
Protocol: (§1) Synergy: GI50s for selected drugs were determined and used to calculate a concentration ratio for use synergy assays with Hec1 inhibitors. Cells were treated with drugs 24 hours after being seeded in appropriate seeding numbers into 96 well plates containing low glucose DME with 10% FBS. […] Cell viability was determined by MTS assay using a CellTiter 96® Aqueous non-radioactive cell proliferation assay system (Promega, Madison, Wis. 53711 USA) according to the manufacturer's instructions. Optical density was determined using a Bio-Tek 340 spectrophotometer (Bio-Tek, Winooski, Vt. 05404) and were then processed using Excel (Microsoft, Redmond, Wash. 98052-7329) and GraphPad Prism 5 linear regression software (GraphPad Software, La Jolla, Calif. 92037 USA) to determine concentration-response curves for calculating relative GI50s. Synergy was determined by calculating a combination index value using the formula CI (combination index)=(CA,X/ICx,A)+(CB,X/ICx,B), where CA,X and CB,X are the concentrations of drug A and drug B used in combination to achieve x % drug effect. ICx,A and ICx,B are the concentrations for single agents to achieve the same effect.
(§2) Hec1 inhibitor-responsive cancer cells used for screening were treated with a mixture of Hec1 inhibitor and select anti-cancer drug at appropriate concentration ratios and evaluated for cell viability.

MB-231 = assay: as above
Protocol: as §1, §2

MB-468 = assay: as above
Protocol: as §1, §2

Huh7 [2] = assay: as above; design: key to Combination Index: CI = (CA,X/ICx,A)+(CB,X/ICx,B) at x% drug effect
Protocol: as §1, §2

Hep3B = assay: as above; design: key to Combination Index: CI = (CA,X/ICx,A)+(CB,X/ICx,B) at x% drug effect
Protocol: as §1, §2

K562R [3] = assay: Drug sensitivity, MTS assay, drug resistant cell line; settings: Gleevec resistant myelogenous leukemia
Protocol: (§3) Drug sensitivity: Cell lines were screened for drug sensitivity by treatment with specified drugs 24 hours after seeding in appropriate seeding numbers into 96 well plates containing low glucose DME with 10% FBS. The drug was added to the plate in triplicate wells, and the cells are incubated in drug treated medium for 96 hours before cell viability was determined by MTS assay using CellTiter 96® Aqueous non-radioactive cell proliferation assay system (Promega, Madison, Wis. 53711 USA). The MTS assay was performed according to the manufacturer's instructions. Optical density was measured using a Bio-Tek 340 spectrophotometer (Bio-Tek, Winooski, Vt. 05404) and optical readings were then processed in Excel (Microsoft, Redmond, Wash. 98052-7329) and GraphPad Prism 5 linear regression software (GraphPad Software, La Jolla, Calif. 92037 USA) to determine concentration-response curves for calculating relative GI50s. […] The % growth inhibition of the test drug on cells were calculated as: [1−(Test Value)/(Control Value)]×100; these values were used to plot concentration-response curves, and then analyzed with linear regression software.

NCI/ADR-RES [4] = assay: as above; settings: multi-drug resistant uterine sarcoma
Protocol: as §3

K562 [5] = assay: Drug sensitivity, MTS cell viability assay (GI50)
Protocol: as §3

Huh7 [6] = assay: Drug sensitivity, MTS cell viability assay (GI50); settings: Huh7, 96 hours, MTS
Protocol: as §3

MDA-MB-231 = assay: Drug sensitivity, MTS cell viability assay (GI50)
Protocol: as §3

MDA-MB-468 = assay: Drug sensitivity, MTS cell viability assay (GI50); settings: Homo sapiens, MDA-MB-468, 96 h
Protocol: as §3

K562R [7] = assay: Synergy of Hec1 inhibitor with cytotoxic drug (combination index, MTS); settings: in combination with paclitaxel
Protocol: as §1
(§4) Drugs that can target pathways unreached by other current anti-cancer drugs have even better clinical potential to be incorporated into current therapeutic regimens. […] Hec1 inhibitor-responsive cancer cells used for screening were treated with a mixture of Hec1 inhibitor and select anti-cancer drug at appropriate concentration ratios and evaluated for cell viability. […] Table 9 summarizes the results of synergism studies on a number of cancer derived cell lines treated with Hec1 inhibitor 110001 in combination cytotoxic drugs.

MEX-SA/Dx5 = assay: as above; settings: in combination with paclitaxel
Protocol: as §1, §4

NCI/ADR-RES [8] = assay: as above; settings: in combination with paclitaxel
Protocol: as §1, §4

[9] = in combination with doxorubicin
[10] = in combination with Taxol (paclitaxel)
[11] = in combination with topotecan (187.20 nM), ratio used 3.74

GI50 (K562R [3]; Homo sapiens, K-562R): 29.6 nM
GI50 (K562 [5]; K562, 96 hours, listed as 110001): 40.6 nM and 43.8 nM
GI50 (Huh7 [6]; Homo sapiens, Huh-7, 96 h): 84.3 nM
GI50 (MDA-MB-231; Homo sapiens, MDA-MB-231, 96 h): 43.3 nM
GI50 (MDA-MB-231; MDA-MB-231, 96 hours, listed as 110001): 42.5 nM
GI50 (MDA-MB-468): 33.6 nM
Compound: COc1ccc(Oc2cc(C)c(-c3csc(NC(=O)c4ccncc4)n3)c(C)c2)cc1 [compound 101001, N-(4-(4-(4-methoxyphenoxy)-2,6-dimethylphenyl)thiazol-2-yl)isonicotinamide]
Synergy (K562 [1]; [9]): Yes
Synergy (K562 [1]; in combination with paclitaxel): Yes
Synergy (MB-231; in combination with paclitaxel): Yes
Synergy (MB-231; in combination with topotecan): Yes
Synergy (MB-468; [9]): Yes
Synergy (MB-468; in combination with topotecan): Yes
Synergy (Huh7 [2]; in combination with KXO1): Additive
Synergy (Huh7 [2]; [9]): Yes
Synergy (Huh7 [2]; in combination with paclitaxel): Yes
Synergy (Huh7 [2]; in combination with sorafenib): Antagonistic
Synergy (Hep3B; in combination with sorafenib): Antagonistic
GI50 (NCI/ADR-RES [4]; Homo sapiens): 28.6 nM

GI50 (K562R [3]): 7.27 nM
GI50 (K562R [3]; Homo sapiens, K-562R): 10.4 nM
GI50 (K562 [5]; Homo sapiens, K562, 96 h): 28.2 nM
GI50 (Huh7 [6]; Homo sapiens, Huh-7, 96 h): 48.9 nM
GI50 (Huh7 [6]): 35 nM
GI50 (MDA-MB-231; Homo sapiens, MDA-MB-231, 96 h): 16.5 nM
GI50 (MDA-MB-468): 21.1 nM
Compound: COCCOc1cnc(Sc2cc(C)c(-c3csc(NC(=O)c4ccncc4)n3)c(C)c2)cn1 [compound 110095, N-(4-(4-(5-(2-methoxyethoxy)pyrazin-2-ylthio)-2,6-dimethylphenyl)thiazol-2-yl)isonicotinamide]
Combination Index (K562 [1]; [10]): 1.64
Combination Index (K562 [1]; [9]): 0.49
Synergy (K562 [1]; [9]): Yes
Combination Index (K562 [1]; in combination with topotecan): 1.38
Combination Index (MB-231; [10]): 1.21
Combination Index (MB-231; [9]): 1.26
Combination Index (MB-231; in combination with topotecan): 0.71
Synergy (MB-231; in combination with topotecan): Yes
Combination Index (MB-468; in combination with Taxol): 1.08
Combination Index (MB-468; [9]): 0.87
Synergy (MB-468; [9]): Yes
Combination Index (MB-468; in combination with topotecan): 0.88
Synergy (MB-468; in combination with topotecan): Yes
Combination Index (Huh7 [2]; in combination with KX01 (KXO1)): 0.96
Combination Index (Huh7 [2]; in combination with KX01 (KXO1), listed as 0095): 1.36
Synergy (Huh7 [2]; in combination with KXO1): Additive
Combination Index (Huh7 [2]; [10]): 0.65
Combination Index (Huh7 [2]; in combination with Taxol (paclitaxel), listed as 0095): 1.05
Combination Index (Huh7 [2]; [9]): 0.76
Synergy (Huh7 [2]; in combination with paclitaxel): Yes
Combination Index (Huh7 [2]; in combination with sorafenib): 1.05
Synergy (Huh7 [2]; in combination with sorafenib): Additive
Combination Index (Huh7 [2]; in combination with sorafenib, listed as 0095): 0.96
Combination Index (Huh7 [2]; in combination with topotecan): 0.75
Synergy (Huh7 [2]; in combination with topotecan (50.91 nM)): Yes
Combination Index (Huh7 [2]; [11]): 0.76
Synergy (Huh7 [2]; [11]): Yes
Combination Index (Hep3B; in combination with KX01): 2.79
Combination Index (Hep3B; in combination with Taxol): 2.40
Combination Index (Hep3B; [9]): 2.27
Combination Index (Hep3B; in combination with sorafenib): 1.20
Combination Index (Hep3B; in combination with topotecan): 1.48
Combination Index (K562R [7]): 0.65
Synergy (K562R [7]): Yes
Combination Index (MEX-SA/Dx5): 1.41
Synergy (MEX-SA/Dx5): No
Combination Index (NCI/ADR-RES [8]): 0.82
Synergy (NCI/ADR-RES [8]): Yes
GI50 (NCI/ADR-RES [4]; Homo sapiens): 19.5 nM
GI50 (NCI/ADR-RES [4]): 10.4 nM
